Results from publication PMC9578474, “In vitro and in silico β-lactamase inhibitory properties and phytochemical profile of Ocimum basilicum cultivated in central delta of Egypt” (Pharmaceutical Biology, 2022).

Test system: T1, CTX-M β-lactamase (ESBL)
T1 construct: gene blaCTX-M
Assay: nitrocefin hydrolysis colorimetric assay (kit MAK222) with cell-free lysate of ESBL-producing E. coli
Assay type: biochemical

COC(=O)/C=C/c1ccccc1 [Methyl cinnamate]
Value methyl cinnamate: 11.6008 µg/mL

O=C(O)[C@H]1/C(=C/CO)O[C@@H]2CC(=O)N21 [clavulanic acid]
Value clavulanic acid: 8.1223 µg/mL
